{"source": "ChEMBL document CHEMBL1201862", "about": "“PubChem BioAssay data set” (2004)", "key": {"Streptococcus": {"tested_on": "Streptococcus", "assay": "GAS UMAA2166 growth inhibition – luminescence, BacTiterGlo, counter-screen for streptokinase expression inhibitor project, dose response (AID 1915)", "format": "functional, organism-based"}, "Streptokinase A": {"target": "T1, Streptokinase A (Streptococcus pyogenes serotype M1, UniProt P10520)", "T1 sequence (P10520 whole entry)": "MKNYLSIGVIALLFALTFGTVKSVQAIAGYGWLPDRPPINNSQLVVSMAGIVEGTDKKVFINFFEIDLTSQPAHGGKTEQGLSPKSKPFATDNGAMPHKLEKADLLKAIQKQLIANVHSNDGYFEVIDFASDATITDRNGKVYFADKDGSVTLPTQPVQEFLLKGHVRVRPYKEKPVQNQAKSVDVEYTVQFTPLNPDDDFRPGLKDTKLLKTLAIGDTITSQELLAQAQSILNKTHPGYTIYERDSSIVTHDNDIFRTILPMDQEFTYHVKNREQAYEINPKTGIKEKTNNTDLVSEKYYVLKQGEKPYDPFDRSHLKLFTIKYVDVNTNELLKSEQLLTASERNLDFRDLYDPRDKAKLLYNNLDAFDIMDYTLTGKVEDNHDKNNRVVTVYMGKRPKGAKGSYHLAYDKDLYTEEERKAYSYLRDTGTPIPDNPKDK", "assay": "viability-normalized secreted streptokinase activity reduction – plasminogen activation absorbance, OD405, dose response (AID 1914)", "format": "functional, Streptococcus pyogenes M1 GAS"}, "[1]": {"assay": "viability loss in HepG2 hepatoma cells – cell-based, ATP luminescence, cherry-pick, activator set 2, cytotoxicity control, dose response (AID 1053143)", "format": "functional"}, "[2]": {"target": "T2, Heat shock factor protein 1 (Mus musculus, UniProt P38532)", "T2 sequence (P38532 whole entry)": "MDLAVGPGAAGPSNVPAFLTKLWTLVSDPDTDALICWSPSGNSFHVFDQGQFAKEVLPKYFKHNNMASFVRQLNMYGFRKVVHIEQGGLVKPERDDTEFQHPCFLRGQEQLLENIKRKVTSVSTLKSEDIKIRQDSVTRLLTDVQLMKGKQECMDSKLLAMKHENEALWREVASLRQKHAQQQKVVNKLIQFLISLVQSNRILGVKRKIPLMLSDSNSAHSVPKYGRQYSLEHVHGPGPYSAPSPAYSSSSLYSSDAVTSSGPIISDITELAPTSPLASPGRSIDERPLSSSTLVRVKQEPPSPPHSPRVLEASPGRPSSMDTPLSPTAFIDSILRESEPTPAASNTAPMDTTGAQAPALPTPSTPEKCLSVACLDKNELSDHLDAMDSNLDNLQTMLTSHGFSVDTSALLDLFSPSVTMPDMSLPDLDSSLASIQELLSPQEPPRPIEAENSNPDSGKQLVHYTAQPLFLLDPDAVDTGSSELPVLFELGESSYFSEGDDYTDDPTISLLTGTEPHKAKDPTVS", "assay": "enhancement of HSF1-driven luciferase signal – cell-based, NIH3T3, luminescence, dose retest, confirmation (AID 435004);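 further: stress induced by proteasome inhibitor MG132 added 30 min after compound; actives raise luminescence as potentiators of the MG132 stress response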", "format": "functional"}, "Major prion protein": {"target": "Major prion protein (Homo sapiens, UniProt P04156)", "format": "functional, cell-based"}, "Beta Lactamase": {"target": "Beta Lactamase (Pseudomonas aeruginosa, UniProt Q932Y6)", "assay": "BLA reporter interference, concentration series – BLA reporter cells, FRET fluorescence, artefact control for TLR9-MyD88 binding inhibitor project, dose response (AID 588341)", "format": "cell-based"}, "[3]": {"assay": "Late stage assay provider counterscreen for TLR9 inhibitors: absorbance-based cell-based MTT cytotoxicity assay.", "format": "functional"}, "CHO": {"tested_on": "CHO", "assay": "CHO cell viability loss, potency – luminescence, cytotoxicity control for TLR9-MyD88 binding inhibitor project, dose response (AID 588339);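 further: CHO cells stably coexpressing TLR9 and MyD88 fusions from primary screen; compound exposure lasted 48 hours before viability readout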", "format": "functional, cell-based, hamster", "conditions": "Cricetulus griseus"}, "[4]": {"target": "Photoreceptor-specific nuclear receptor (Homo sapiens, UniProt Q9Y5X4)", "format": "functional, cell-based"}, "[5]": {"assay": "reduced cellular PGC1a acetyl-lysine signal – cell-based, cherry-picked samples, dose response (AID 720514);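 further: potency may reflect raised or lowered acetylation signal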", "format": "functional"}, "HEK293": {"tested_on": "HEK293", "assay": "viability loss in HEK293T cells – cell-based, ATP luminescence, cherry-pick samples, cytotoxicity control, dose response (AID 687005);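 further: cells exposed to compound for 48 hours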", "format": "functional", "conditions": "Homo sapiens"}, "[6]": {"assay": "HEK293 Cytotoxicity Assay Measured in Cell-Based System Using Plate Reader - 7071-01_Inhibitor_Dose_CherryPick_Activity_Set2.", "format": "functional"}, "[7]": {"target": "Potassium channel subfamily K member 9 (Homo sapiens, UniProt Q9NPC2)", "assay": "KCNK9 flux blockade, concentration-response – cell-based, FluxOR thallium flux, selectivity assay for TASK1 inhibitor project, SAR follow-up (AID 652211);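 further: potency is for inhibitors of the channel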", "format": "functional"}, "[8]": {"target": "Potassium channel subfamily K member 3 (Homo sapiens, UniProt O14649)", "assay": "inhibition of human KCNK3 channel flux – CHO cells, FluxOR thallium flux, SAR follow-up (AID 652212)", "format": "functional"}, "[9]": {"assay": "Late stage assay provider results from the probe development effort to identify selective inhibitors of heat shock protein 90 (HSP90): Absorbance-based cell proliferation assay in SKBR3 cells.", "format": "functional", "conditions": "SK-BR-3"}, "[10]": {"assay": "Late stage assay provider results from the probe development effort to identify selective inhibitors of heat shock protein 90 (HSP90): Absorbance-based cell proliferation assay in MCF7 cells.", "format": "functional"}, "[11]": {"assay": "PAX5 cellular inhibition readout – cell-based, plate reader, dry powder samples, selectivity assay for PAX8 inhibitor project, dose response (AID 743047);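 further: HEK293 cells carrying a Pax5 driven CD19 promoter luciferase reporter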", "format": "functional"}, "[12]": {"assay": "IGROV1 cell killing – plate reader, dry powder samples, PAX8 inhibitor project, dose response (AID 743043)", "format": "functional, cell-based", "conditions": "IGROV-1"}, "[13]": {"assay": "OVCAR4 cell viability loss – plate reader, dry powder, SA11, cytotoxicity control for PAX8 inhibitor project, dose response (AID 743150)", "format": "functional, cell-based", "conditions": "OVCAR-4"}, "[14]": {"assay": "COV362 cell viability loss – plate reader, dry powder, SA12, cytotoxicity control for PAX8 inhibitor project, dose response (AID 743144)", "format": "functional, cell-based"}, "[15]": {"assay": "OV-90 cell viability loss – plate reader, dry powder, SA8, PAX8 inhibitor project, dose response (AID 743149)", "format": "functional, cell-based"}, "[16]": {"assay": "PAX8-dependent cell viability loss – plate reader, dry powder, dose response (AID 743049)", "format": "functional, cell-based"}, "[17]": {"assay": "OVCAR-3 cell viability loss – plate reader, dry powder samples, PAX8 inhibitor project, dose response (AID 743044)", "format": "functional, cell-based"}, "[18]": {"assay": "toxicity toward immortalized ovarian surface epithelium – cell-based, plate reader, dry powder samples, cytotoxicity control for PAX8 inhibitor project, dose response (AID 743045)", "format": "functional"}, "[19]": {"assay": "inhibitors acting on PAX2 in cells – cell-based, plate reader, dry powder samples, selectivity assay for PAX8 inhibitor project, dose response (AID 743048);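 further: HEK293 cells carrying a WT1 promoter luciferase reporter driven by expressed Pax2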", "format": "functional"}, "[20]": {"assay": "COV434 cell viability loss – plate reader, dry powder, SA7, cytotoxicity control for PAX8 inhibitor project, dose response (AID 743145)", "format": "functional, cell-based"}}, "note": "Activity calls are given as the source filed them.", "data": [{"smiles": "Cn1nnc(-c2ccc(OCc3ccccc3F)cc2)n1", "values": [{"measurement": "EC50", "setting": "Streptococcus", "value": "> 150 µM (not active)"}, {"measurement": "EC50", "setting": "Streptokinase A", "value": "> 150 µM (not active)"}, {"measurement": "AC50", "setting": "[1]", "value": "26 µM (active)"}, {"measurement": "EC50", "setting": "[2]", "value": "> 260 µM (inactive)"}]}, {"smiles": "O=C(O)CCC(=O)NNC(=O)COc1ccc2ccccc2c1Br", "values": [{"measurement": "IC50", "setting": "cells", "value": "> 138 µM (inactive)"}, {"measurement": "IC50", "setting": "Major prion protein", "value": "4.45 µM (active)"}]}, {"smiles": "COc1ccc(C[C@@H]2OC3(C=CC(=O)C=C3)O[C@H]2Cc2ccc(OC)cc2)cc1", "values": [{"measurement": "IC50", "setting": "Beta Lactamase", "value": "17.5 µM (inactive)"}, {"measurement": "CC50", "setting": "[3]", "value": "0.48 µM (active)"}, {"measurement": "IC50", "setting": "CHO", "value": "0.597 µM (active)"}, {"measurement": "IC50", "setting": "[4]", "value": "0.149 µM (active)"}, {"measurement": "AC50", "setting": "[5]", "value": "0.756 µM (active)"}]}, {"smiles": "COc1ccc(NC(=O)Nc2ccc3c(c2)C(=O)N([C@H](C)CO)C[C@H](C)[C@H](CN(C)C(=O)Cc2ccccc2)OCCCC[C@H](C)O3)cc1", "values": [{"measurement": "AC50", "setting": "HEK293", "value": "25.4 µM (active)"}, {"measurement": "AC50", "setting": "[6]", "value": "25.4 µM (active)"}]}, {"smiles": "CCOc1ccccc1NC(=O)c1cccc(NC(=O)c2cccc(C(F)(F)F)c2)c1", "values": [{"measurement": "IC50", "setting": "[7]", "value": "1.38 µM (active)"}, {"measurement": "IC50", "setting": "[8]", "value": "0.232 µM (active)"}]}, {"smiles": "COc1c[nH]c(C(=O)Nc2ccc(C(C)C)cc2)cc1=O", "values": [{"measurement": "IC50", "setting": "[9]", "value": "> 100 µM (inactive)"}, {"measurement": "IC50", "setting": "[10]", "value": "> 100 µM (inactive)"}]}, {"smiles": "N#C[C@@H]1[C@@H](c2ccc(C#Cc3ccccc3F)cc2)[C@@H](CO)N1C(=O)C1CCCC1", "values": [{"measurement": "AC50", "setting": "[11]", "value": "18.1 µM (active)"}, {"measurement": "AC50", "setting": "[12]", "value": "47.3 µM (active)"}, {"measurement": "AC50", "setting": "[13]", "value": "44.3 µM (active)"}, {"measurement": "AC50", "setting": "[14]", "value": "48.5 µM (active)"}, {"measurement": "AC50", "setting": "[15]", "value": "35.3 µM (active)"}, {"measurement": "AC50", "setting": "[16]", "value": "11.9 µM (active)"}, {"measurement": "AC50", "setting": "[17]", "value": "29.7 µM (active)"}, {"measurement": "AC50", "setting": "[18]", "value": "27 µM (active)"}, {"measurement": "AC50", "setting": "[19]", "value": "16.5 µM (active)"}, {"measurement": "AC50", "setting": "[20]", "value": "10.9 µM (active)"}]}]}
